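In this assay, cells in 96-well plates receive the compound at five concentrations for 48 hours. Endpoints are linearly interpolated between the surrounding concentrations. TGI: total growth inhibition.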
Legend:
Experiment in all cases: NCI-60 cell line screen, 48 h
EKVX NSCLC = system: EKVX NSCLC
MDA-MB-231 breast = system: MDA-MB-231 breast
MCF7 breast = system: MCF7 breast
LOX IMVI melanoma = system: LOX IMVI melanoma
MALME-3M melanoma = system: MALME-3M melanoma
K-562 leukemia = system: K-562 leukemia
SN12C renal = system: SN12C renal
OVCAR-5 ovarian = system: OVCAR-5 ovarian
A549 NSCLC = system: A549 NSCLC
T-47D breast = system: T-47D breast
M14 melanoma = system: M14 melanoma
NCI-H226 lung = system: NCI-H226 lung
TK-10 renal = system: TK-10 renal
BT-549 breast = system: BT-549 breast
MDA-MB-435 = system: MDA-MB-435
HOP-62 NSCLC = system: HOP-62 NSCLC
ACHN renal = system: ACHN renal
OVCAR-8 ovarian = system: OVCAR-8 ovarian
U251 CNS = system: U251 CNS
786-0 renal = system: 786-0 renal
SR leukemia = system: SR leukemia
NCI-H23 lung = system: NCI-H23 lung
KM12 colon = system: KM12 colon
A498 renal = system: A498 renal
HOP-92 NSCLC = system: HOP-92 NSCLC
SNB-75 CNS = system: SNB-75 CNS
SNB-19 CNS = system: SNB-19 CNS
SF-268 CNS = system: SF-268 CNS
SK-MEL-2 melanoma = system: SK-MEL-2 melanoma
MOLT-4 leukemia = system: MOLT-4 leukemia
SK-MEL-28 melanoma = system: SK-MEL-28 melanoma
NCI-H522 lung = system: NCI-H522 lung
HCT-15 colon = system: HCT-15 colon
DU-145 prostate = system: DU-145 prostate
HS 578T breast = system: HS 578T breast
PC-3 prostate = system: PC-3 prostate
NCI-H460 lung = system: NCI-H460 lung
UACC-62 melanoma = system: UACC-62 melanoma
UACC-257 melanoma = system: UACC-257 melanoma
SF-539 CNS = system: SF-539 CNS
HCT-116 colon = system: HCT-116 colon
NCI/ADR-RES ovarian = system: NCI/ADR-RES ovarian
IGROV1 ovarian = system: IGROV1 ovarian
OVCAR-4 ovarian = system: OVCAR-4 ovarian
HT29 colon = system: HT29 colon
SW-620 colon = system: SW-620 colon
SF-295 CNS = system: SF-295 CNS
OVCAR-3 ovarian = system: OVCAR-3 ovarian
UO-31 renal = system: UO-31 renal
HL-60(TB) leukemia = system: HL-60(TB) leukemia
RXF 393 renal = system: RXF 393 renal
RPMI-8226 leukemia = system: RPMI-8226 leukemia
SK-MEL-5 melanoma = system: SK-MEL-5 melanoma
COLO 205 colon = system: COLO 205 colon
CAKI-1 renal = system: CAKI-1 renal
MDA-N = system: MDA-N
SK-OV-3 ovarian = system: SK-OV-3 ovarian
CCRF-CEM leukemia = system: CCRF-CEM leukemia

## O=C(CSc1nc2ccccc2c2ccccc12)c1ccccc1
EKVX NSCLC
  TGI: > 100 µM
MDA-MB-231 breast
  TGI: > 100 µM
MCF7 breast
  TGI: > 100 µM
LOX IMVI melanoma
  TGI: > 100 µM
MALME-3M melanoma
  TGI: > 100 µM
K-562 leukemia
  TGI: > 100 µM
SN12C renal
  TGI: > 100 µM
OVCAR-5 ovarian
  TGI: > 100 µM
A549 NSCLC
  TGI: > 100 µM
T-47D breast
  TGI: > 100 µM
M14 melanoma
  TGI: > 100 µM
NCI-H226 lung
  TGI: > 100 µM
TK-10 renal
  TGI: > 100 µM
BT-549 breast
  TGI: > 100 µM
MDA-MB-435
  TGI: > 100 µM
HOP-62 NSCLC
  TGI: > 100 µM
ACHN renal
  TGI: > 100 µM
OVCAR-8 ovarian
  TGI: > 100 µM
U251 CNS
  TGI: > 100 µM
786-0 renal
  TGI: > 100 µM
SR leukemia
  TGI: > 100 µM
NCI-H23 lung
  TGI: > 100 µM
KM12 colon
  TGI: > 100 µM
A498 renal
  TGI: > 100 µM
HOP-92 NSCLC
  TGI: > 100 µM
SNB-75 CNS
  TGI: 57.9 µM
SNB-19 CNS
  TGI: > 100 µM
SF-268 CNS
  TGI: > 100 µM
SK-MEL-2 melanoma
  TGI: > 100 µM
MOLT-4 leukemia
  TGI: > 100 µM
SK-MEL-28 melanoma
  TGI: > 100 µM
NCI-H522 lung
  TGI: > 100 µM
HCT-15 colon
  TGI: > 100 µM
DU-145 prostate
  TGI: > 100 µM
HS 578T breast
  TGI: 0.0967 µM
PC-3 prostate
  TGI: > 100 µM
NCI-H460 lung
  TGI: > 100 µM
UACC-62 melanoma
  TGI: > 100 µM
UACC-257 melanoma
  TGI: > 100 µM
SF-539 CNS
  TGI: > 100 µM
HCT-116 colon
  TGI: > 100 µM
NCI/ADR-RES ovarian
  TGI: > 100 µM
IGROV1 ovarian
  TGI: > 100 µM
OVCAR-4 ovarian
  TGI: > 100 µM
HT29 colon
  TGI: > 100 µM
SW-620 colon
  TGI: > 100 µM
SF-295 CNS
  TGI: > 100 µM
OVCAR-3 ovarian
  TGI: > 100 µM
UO-31 renal
  TGI: > 100 µM
HL-60(TB) leukemia
  TGI: > 100 µM
RXF 393 renal
  TGI: > 100 µM
RPMI-8226 leukemia
  TGI: > 100 µM
SK-MEL-5 melanoma
  TGI: > 100 µM
COLO 205 colon
  TGI: > 100 µM
CAKI-1 renal
  TGI: > 100 µM
MDA-N
  TGI: > 100 µM

## CCOC(=O)C1C(O)CC2c3ccccc3-c3ccccc3C21 (stereo not drawn)
EKVX NSCLC
  TGI: > 100 µM
MDA-MB-231 breast
  TGI: > 100 µM
SK-OV-3 ovarian
  TGI: 45.5 µM
MCF7 breast
  TGI: > 100 µM
LOX IMVI melanoma
  TGI: > 100 µM
MALME-3M melanoma
  TGI: > 100 µM
CCRF-CEM leukemia
  TGI: > 100 µM
K-562 leukemia
  TGI: > 100 µM
SN12C renal
  TGI: > 100 µM
OVCAR-5 ovarian
  TGI: > 100 µM
A549 NSCLC
  TGI: > 100 µM
T-47D breast
  TGI: > 100 µM
M14 melanoma
  TGI: > 100 µM
NCI-H226 lung
  TGI: 60.1 µM
TK-10 renal
  TGI: > 100 µM
BT-549 breast
  TGI: > 100 µM
MDA-MB-435
  TGI: > 100 µM
HOP-62 NSCLC
  TGI: 91.2 µM
ACHN renal
  TGI: > 100 µM
OVCAR-8 ovarian
  TGI: 48.1 µM
U251 CNS
  TGI: 75.5 µM
786-0 renal
  TGI: 89 µM
SR leukemia
  TGI: > 100 µM
NCI-H23 lung
  TGI: > 100 µM
KM12 colon
  TGI: > 100 µM
A498 renal
  TGI: 68.9 µM
HOP-92 NSCLC
  TGI: 75 µM
SNB-75 CNS
  TGI: 67.1 µM
SNB-19 CNS
  TGI: > 100 µM
SF-268 CNS
  TGI: > 100 µM
SK-MEL-2 melanoma
  TGI: > 100 µM
MOLT-4 leukemia
  TGI: > 100 µM
SK-MEL-28 melanoma
  TGI: > 100 µM
NCI-H522 lung
  TGI: > 100 µM
HCT-15 colon
  TGI: > 100 µM
DU-145 prostate
  TGI: > 100 µM
HS 578T breast
  TGI: 60.6 µM
PC-3 prostate
  TGI: > 100 µM
NCI-H460 lung
  TGI: > 100 µM
UACC-62 melanoma
  TGI: > 100 µM
UACC-257 melanoma
  TGI: > 100 µM
HCT-116 colon
  TGI: 41.4 µM
NCI/ADR-RES ovarian
  TGI: > 100 µM
IGROV1 ovarian
  TGI: > 100 µM
OVCAR-4 ovarian
  TGI: > 100 µM
HT29 colon
  TGI: > 100 µM
SW-620 colon
  TGI: > 100 µM
SF-295 CNS
  TGI: > 100 µM
OVCAR-3 ovarian
  TGI: > 100 µM
UO-31 renal
  TGI: > 100 µM
HL-60(TB) leukemia
  TGI: > 100 µM
RXF 393 renal
  TGI: > 100 µM
RPMI-8226 leukemia
  TGI: > 100 µM
SK-MEL-5 melanoma
  TGI: > 100 µM
COLO 205 colon
  TGI: > 100 µM
CAKI-1 renal
  TGI: > 100 µM
MDA-N
  TGI: > 100 µM

Source: PubChem BioAssay (NCI)
